The values below come from BindingDB's records for doi:10.1021/acs.jmedchem.8b01908 (Chinese Academy of Sciences, 2019).

Molecules are shown by their SMILES. Positions of bridges follow the written chain, without caps; N, C: chain ends. Residues, ends and D or L forms follow the SMILES beside them.

A short description of this assay: Inhibition of the intrinsic peri-cellular uPA in mouse CT26 cells assessed as reduction in cell invasion measured every hour by transwell assay.
As usually defined, the IC50 is the midpoint of a concentration-inhibition curve. For `CC(=O)N[C@H]1CSSC[C@@H](C(N)=O)NC(=O)[C@H](CC(=O)O)NC(=O)[C@H](CC(C)C)NC(=O)[C@H](Cc2ccc(O)cc2)NC(=O)[C@H](CCCNC(=N)N)NC(=O)[C@H](CO)NC(=O)[C@H](Cc2ccc(O)cc2)NC(=O)[C@H](C)NC(=O)[C@@H]2CCCN2C1=O` (Ac-CPAYSRYLDC-NH2; disulfide 1-10), the IC50 is 39.4 µM.

For `CC[C@H](C)[C@@H]1NC(=O)[C@H](Cc2ccc(O)cc2)NC(=O)[C@H](CCCNC(=N)N)NC(=O)[C@H](CO)NC(=O)[C@H](Cc2ccc(O)cc2)NC(=O)[C@H](C)NC(=O)[C@@H]2CCCN2C(=O)[C@@H](N)CSSC[C@@H](C(=O)O)NC(=O)CNC1=O` (H-CPAYSRYIGC-OH; disulfide 1-10), the 50% inhibitory concentration (IC50) amounted to 3.28 µM.

With `CC[C@H](C)[C@@H]1NC(=O)[C@H](Cc2ccc(O)cc2)NC(=O)[C@H](CCCNC(=N)N)NC(=O)[C@H](CO)NC(=O)[C@H](Cc2ccc(O)cc2)NC(=O)[C@H](C)NC(=O)[C@@H]2CCCN2C(=O)[C@@H](NC(C)=O)CSSC[C@@H](C(N)=O)NC(=O)CNC1=O` (Ac-CPAYSRYIGC-NH2; disulfide 1-10), the IC50 was 5.02 µM.
